Measured values from the supplement of paper PMC10307832.

These cell lines were tested with CN1CCC(CC1)OC2=CC(=C(C=C2)NC3=NC=C4C(=N3)N(C(=O)N4C)C5CCCC5)OC [AZ3146] + Cc1cc(Nc2cc(N3CCN(C)CC3)nc(Sc3ccc(NC(=O)C4CC4)cc3)n2)n[nH]1 [Tozasertib] (partner 0.1 µM) (assay: relative viability (nuclei count vs DMSO), 5 days (fraction); higher = more cells survive). Conditions: first compound 8 µM.
How it was run: (§1)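 Values are medians from duplicate plates. Each reflects relative viability, defined as the nuclei count of treated wells over that of vehicle wells. Lung cancer cell lines in 1536-well plates were pin-tool dosed one day after seeding with one drug alone or with a fixed anchor-drug dose plus five library-drug doses (not always all listed) in √10 steps, then fixed, stained and imaged at 4× after 5 days.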
NCI-H358 was tested, and the relative viability was 0.12. Cell Line NCI-H322M has a relative viability of 0.509. LC-2-ad was tested, and the relative viability was 0.269. HCC-827 gave a relative viability of 0.368. SW 900 showed a relative viability of 0.333. In the case of NCI-H1648, the relative viability is reported as 0.406. For HCC-366, the relative viability was 0.0336.

Each cell line was assayed with CCOC(=O)CCNc1cc(N2CCc3ccccc3CC2)nc(-c2ccccn2)n1 [GSK-J4] + O=C(CCCCCCC(=O)Nc1ccccc1)NO [Vorinostat] (partner 1 µM) in the same assay as above. Conditions: first compound 0.5 µM.
How it was run: as §1
Cell Line NCI-H522 has a relative viability of 0.931. For PC-14, the relative viability was 0.721. In the case of NCI-H1666, the relative viability is reported as 0.956. For EKVX, the relative viability was 0.686. Work on NCI-H1755 yielded a relative viability of 0.675. For NCI-H2023, the relative viability was 0.59. Cell Line HCC-78 has a relative viability of 0.462. SK-LU-1 showed a relative viability of 0.751. In the case of PC-3 [JPC-3], the relative viability is reported as 1.05. For LOU-NH91, the relative viability was 1.02. NCI-H647 gave a relative viability of 0.59. For NCI-H23, the relative viability was 0.596. For EPLC-272H, the relative viability was 0.461. Cell Line NCI-H2126 has a relative viability of 0.762. Cell Line ChaGo-K-1 has a relative viability of 0.785. Cell Line HCC-44 has a relative viability of 1.01. Cell Line NCI-H1734 has a relative viability of 0.749. NCI-H650 showed a relative viability of 0.358. For LK-2, the relative viability was 0.193. In the case of NCI-H2228, the relative viability is reported as 0.642. NCI-H2342 showed a relative viability of 0.81. Cell Line NCI-H1944 has a relative viability of 0.566. For HARA, the relative viability was 0.554. In the case of COR-L23, the relative viability is reported as 0.474. Work on LCLC-103H yielded a relative viability of 0.77. LXF-289 showed a relative viability of 0.821. For NCI-H358, the relative viability was 0.662. NCI-H322M was tested, and the relative viability was 0.877. LC-2-ad gave a relative viability of 0.787. With HCC-827 the relative viability was 0.873. SW 900 was tested, and the relative viability was 0.607. NCI-H1648 showed a relative viability of 0.527. IA-LM gave a relative viability of 0.901. HCC-366 showed a relative viability of 0.284.

Same assay, conditions: first compound 1.581 µM
NCI-H522 showed a relative viability of 0.725. PC-14 was tested, and the relative viability was 0.66. NCI-H1666 showed a relative viability of 0.931. NCI-H1755 was tested, and the relative viability was 0.638. In the case of NCI-H2023, the relative viability is reported as 0.497. HCC-78 showed a relative viability of 0.435. With SK-LU-1 the relative viability was 0.679. PC-3 [JPC-3] was tested, and the relative viability was 0.723. LOU-NH91 was tested, and the relative viability was 0.868. NCI-H647 gave a relative viability of 0.719. NCI-H23 gave a relative viability of 0.411. Cell Line EPLC-272H has a relative viability of 0.37. Cell Line NCI-H2126 has a relative viability of 0.659. HCC-44 showed a relative viability of 1.09. NCI-H1734 was tested, and the relative viability was 0.788. With NCI-H650 the relative viability was 0.342. LK-2 showed a relative viability of 0.248. For NCI-H2228, the relative viability was 0.873. Cell Line NCI-H2342 has a relative viability of 0.842. For NCI-H1944, the relative viability was 0.477. HARA was tested, and the relative viability was 0.498. With COR-L23 the relative viability was 0.442. Work on LCLC-103H yielded a relative viability of 0.671. Cell Line LXF-289 has a relative viability of 0.631. With NCI-H322M the relative viability was 0.964. LC-2-ad showed a relative viability of 0.529. HCC-827 gave a relative viability of 0.731. SW 900 was tested, and the relative viability was 0.414. Work on HCC-366 yielded a relative viability of 0.287.

Same assay, conditions: first compound 5 µM
PC-14 was tested, and the relative viability was 0.565. Work on NCI-H1666 yielded a relative viability of 0.97. Work on EKVX yielded a relative viability of 0.808. NCI-H1755 showed a relative viability of 0.694. For NCI-H2023, the relative viability was 0.545. HCC-78 gave a relative viability of 0.601. For SK-LU-1, the relative viability was 0.626. With PC-3 [JPC-3] the relative viability was 0.671. Work on LOU-NH91 yielded a relative viability of 0.668. NCI-H647 gave a relative viability of 0.553.
